{"source": "paper PMC6100082", "about": "“Pyridine-Ureas as Potential Anticancer Agents: Synthesis and In Vitro Biological Evaluation” (Molecules : A Journal of Synthetic Chemistry and Natural …, 2018)", "assay_type_in_all_cases": "cell-based, human", "key": {"[1]": {"system": "RPMI-8226", "assay": "NCI one-dose SRB assay (Leukemia)", "experimental": "(§1) The structures of all the newly prepared pyridine-ureas 8a–n were submitted to the National Cancer Institute (NCI) Developmental Therapeutic Program. Eight compounds 8b, 8d, 8e, 8i, 8j and 8l–n were selected to be examined for their in vitro growth inhibitory activity. The anticancer assays were carried out according to the protocol of the Drug Evaluation Branch, NCI, Bethesda. The selected pyridine-ureas were tested at one dose primary anticancer assay against a panel of approximately 58 cancer lines (concentration 10^−5 M). The tested human cancer cell lines emerged from nine different cancer subtypes: leukemia, colon, melanoma, ovarian, lung, CNS, renal, breast and prostate cancers. The sulforhodamine B (SRB) protein assay was adopted to estimate the cell viability and growth. The results were reported as mean-graph of the percentage growth of the treated cells, and presented as percentage growth inhibition (GI%) caused by the test compounds (Table 2).\n(§2) The anticancer assays were performed in accordance with the protocol of the Drug Evaluation Branch, NCI, Bethesda. A 48 h drug exposure protocol was used and sulforhodamine B (SRB) protein assay was applied to estimate the cell viability and growth, as reported earlier."}, "[2]": {"system": "MOLT-4", "assay": "NCI one-dose SRB assay (Leukemia)", "experimental": "as §1, §2"}, "[3]": {"system": "SR", "assay": "NCI one-dose SRB assay (Leukemia)", "experimental": "as §1, §2"}, "[4]": {"system": "HL-60(TB)", "assay": "NCI one-dose SRB assay (Leukemia)", "experimental": "as §1, §2"}, "[5]": {"system": "CCRF-CEM", "assay": "NCI one-dose SRB assay (Leukemia)", "experimental": "as §1, §2"}, "[6]": {"system": "K-562", "assay": "NCI one-dose SRB assay (Leukemia)", "experimental": "as §1, §2"}, "[7]": {"system": "SNB-19", "assay": "NCI one-dose SRB assay (CNS Cancer)", "experimental": "as §1, §2"}, "[8]": {"system": "SF-268", "assay": "NCI one-dose SRB assay (CNS Cancer)", "experimental": "as §1, §2"}, "[9]": {"system": "SNB-75", "assay": "NCI one-dose SRB assay (CNS Cancer)", "experimental": "as §1, §2"}, "[10]": {"system": "U251", "assay": "NCI one-dose SRB assay (CNS Cancer)", "experimental": "as §1, §2"}, "[11]": {"system": "SF-539", "assay": "NCI one-dose SRB assay (CNS Cancer)", "experimental": "as §1, §2"}, "[12]": {"system": "SF-295", "assay": "NCI one-dose SRB assay (CNS Cancer)", "experimental": "as §1, §2"}, "[13]": {"system": "HCC-2998", "assay": "NCI one-dose SRB assay (Colon Cancer)", "experimental": "as §1, §2"}, "[14]": {"system": "HCT-15", "assay": "NCI one-dose SRB assay (Colon Cancer)", "experimental": "as §1, §2"}, "[15]": {"system": "SW-620", "assay": "NCI one-dose SRB assay (Colon Cancer)", "experimental": "as §1, §2"}, "[16]": {"system": "HCT-116", "assay": "NCI one-dose SRB assay (Colon Cancer)", "experimental": "as §1, §2"}, "[17]": {"system": "HT29", "assay": "NCI one-dose SRB assay (Colon Cancer)", "experimental": "as §1, §2"}, "[18]": {"system": "KM12", "assay": "NCI one-dose SRB assay (Colon Cancer)", "experimental": "as §1, §2"}, "[19]": {"system": "COLO 205", "assay": "NCI one-dose SRB assay (Colon Cancer)", "experimental": "as §1, §2"}, "[20]": {"system": "RXF 393", "assay": "NCI one-dose SRB assay (Renal Cancer)", "experimental": "as §1, §2"}, "[21]": {"system": "UO-31", "assay": "NCI one-dose SRB assay (Renal Cancer)", "experimental": "as §1, §2"}, "[22]": {"system": "TK-10", "assay": "NCI one-dose SRB assay (Renal Cancer)", "experimental": "as §1, §2"}, "[23]": {"system": "SN12C", "assay": "NCI one-dose SRB assay (Renal Cancer)", "experimental": "as §1, §2"}, "[24]": {"system": "786-0", "assay": "NCI one-dose SRB assay (Renal Cancer)", "experimental": "as §1, §2"}, "[25]": {"system": "A498", "assay": "NCI one-dose SRB assay (Renal Cancer)", "experimental": "as §1, §2"}, "[26]": {"system": "DU-145", "assay": "NCI one-dose SRB assay (Prostate)", "experimental": "as §1, §2"}, "[27]": {"system": "PC-3", "assay": "NCI one-dose SRB assay (Prostate)", "experimental": "as §1, §2"}, "[28]": {"system": "NCI 58 cell line panel", "assay": "NCI one-dose SRB assay, whole panel / subpanel summary", "experimental": "as §1, §2"}, "[29]": {"conditions": "Homo sapiens, 10 μM, read-out: Percentage growth inhibition (GI%)"}}}
{"smiles": "COc1ccc(-c2ccc(NC(=O)Nc3ccc(Cl)c(C(F)(F)F)c3)c(C)n2)cc1", "note": "[Compound 8e, 1-(4-Chloro-3-(trifluoromethyl)phenyl)-3-(6-(4-methoxyphenyl)-2-methylpyridin-3-yl)urea]", "values": [{"measurement": "inhibition at 10 µM", "setting": "[1]; Homo sapiens, RPMI-8226, 10 μM, read-out: Percentage growth inhibition (GI%)", "result": 91, "unit": "%"}, {"measurement": "Growth Percent", "setting": "[1]; RPMI-8226, 1.00E-5 Molar", "result": 9.87, "unit": "%"}, {"measurement": "inhibition at 10 µM", "setting": "[2]; Homo sapiens, MOLT-4, 10 μM, read-out: Percentage growth inhibition (GI%)", "result": 76, "unit": "%"}, {"measurement": "Growth Percent", "setting": "[2]; MOLT-4, 1.00E-5 Molar", "result": 24.60, "unit": "%"}, {"measurement": "Growth Percent", "setting": "[3]; 1.00E-5 Molar", "result": 35.68, "unit": "%"}, {"measurement": "inhibition at 10 µM", "setting": "[3]; [29]", "result": 65, "unit": "%"}, {"measurement": "Growth Percent", "setting": "[4]; 1.00E-5 Molar", "result": 32.27, "unit": "%"}, {"measurement": "inhibition at 10 µM", "setting": "[4]; [29]", "result": 68, "unit": "%"}, {"measurement": "Growth Percent", "setting": "[5]; 1.00E-5 Molar", "result": 29.88, "unit": "%"}, {"measurement": "inhibition at 10 µM", "setting": "[5]; [29]", "result": 71, "unit": "%"}, {"measurement": "inhibition at 10 µM", "setting": "[6]; Homo sapiens, K562, K-562, 10 μM, read-out: Percentage growth inhibition (GI%)", "result": 84, "unit": "%"}, {"measurement": "Growth Percent", "setting": "[6]; K-562, 1.00E-5 Molar", "result": 16.70, "unit": "%"}, {"measurement": "inhibition at 10 µM", "setting": "[7]; Homo sapiens, SNB-19, 10 μM, read-out: Percentage growth inhibition (GI%)", "result": 43, "unit": "%"}, {"measurement": "Growth Percent", "setting": "[7]; SNB-19, 1.00E-5 Molar", "result": 57.33, "unit": "%"}, {"measurement": "inhibition at 10 µM", "setting": "[8]; Homo sapiens, SF-268, 10 μM, read-out: Percentage growth inhibition (GI%)", "result": 27, "unit": "%"}, {"measurement": "Growth Percent", "setting": "[8]; SF-268, 1.00E-5 Molar", "result": 73.73, "unit": "%"}, {"measurement": "inhibition at 10 µM", "setting": "[9]; Homo sapiens, SNB-75, 10 μM, read-out: Percentage growth inhibition (GI%)", "result": 27, "unit": "%"}, {"measurement": "Growth Percent", "setting": "[9]; SNB-75, 1.00E-5 Molar", "result": 73.44, "unit": "%"}, {"measurement": "inhibition at 10 µM", "setting": "[10]; Homo sapiens, U-251, U251, 10 μM, read-out: Percentage growth inhibition (GI%)", "result": 67, "unit": "%"}, {"measurement": "Growth Percent", "setting": "[10]; U251, 1.00E-5 Molar", "result": 33.63, "unit": "%"}, {"measurement": "inhibition at 10 µM", "setting": "[11]; Homo sapiens, SF-539, 10 μM, read-out: Percentage growth inhibition (GI%)", "result": 19, "unit": "%"}, {"measurement": "Growth Percent", "setting": "[11]; SF-539, 1.00E-5 Molar", "result": 81.32, "unit": "%"}, {"measurement": "inhibition at 10 µM", "setting": "[12]; Homo sapiens, SF-295, 10 μM, read-out: Percentage growth inhibition (GI%)", "result": 54, "unit": "%"}, {"measurement": "Growth Percent", "setting": "[12]; SF-295, 1.00E-5 Molar", "result": 46.97, "unit": "%"}, {"measurement": "Growth Percent", "setting": "[13]; HCC-2998, 1.00E-5 Molar", "result": 69.17, "unit": "%"}, {"measurement": "inhibition at 10 µM", "setting": "[13]; Homo sapiens, HCC-2998, 10 μM, read-out: Percentage growth inhibition (GI%)", "result": 31, "unit": "%"}, {"measurement": "Growth Percent", "setting": "[14]; HCT-15, 1.00E-5 Molar", "result": 37.80, "unit": "%"}, {"measurement": "inhibition at 10 µM", "setting": "[14]; Homo sapiens, HCT-15, 10 μM, read-out: Percentage growth inhibition (GI%)", "result": 63, "unit": "%"}, {"measurement": "inhibition at 10 µM", "setting": "[15]; Homo sapiens, SW-620, 10 μM, read-out: Percentage growth inhibition (GI%)", "result": 33, "unit": "%"}, {"measurement": "Growth Percent", "setting": "[15]; SW-620, 1.00E-5 Molar", "result": 67.04, "unit": "%"}, {"measurement": "Growth Percent", "setting": "[16]; HCT-116, 1.00E-5 Molar", "result": 23.73, "unit": "%"}, {"measurement": "inhibition at 10 µM", "setting": "[16]; Homo sapiens, HCT-116, 10 μM, read-out: Percentage growth inhibition (GI%)", "result": 77, "unit": "%"}, {"measurement": "Growth Percent", "setting": "[17]; HT29, 1.00E-5 Molar", "result": 46.44, "unit": "%"}, {"measurement": "inhibition at 10 µM", "setting": "[17]; Homo sapiens, HT-29, HT29, 10 μM, read-out: Percentage growth inhibition (GI%)", "result": 54, "unit": "%"}, {"measurement": "inhibition at 10 µM", "setting": "[18]; Homo sapiens, KM12, 10 μM, read-out: Percentage growth inhibition (GI%)", "result": 63, "unit": "%"}, {"measurement": "Growth Percent", "setting": "[18]; KM12, 1.00E-5 Molar", "result": 37.36, "unit": "%"}, {"measurement": "Growth Percent", "setting": "[19]; COLO 205, 1.00E-5 Molar", "result": 80.09, "unit": "%"}, {"measurement": "inhibition at 10 µM", "setting": "[19]; Homo sapiens, COLO 205, 10 μM, read-out: Percentage growth inhibition (GI%)", "result": 20, "unit": "%"}, {"measurement": "inhibition at 10 µM", "setting": "[20]; Homo sapiens, RXF 393, 10 μM, read-out: Percentage growth inhibition (GI%)", "result": 19, "unit": "%"}, {"measurement": "Growth Percent", "setting": "[20]; RXF 393, 1.00E-5 Molar", "result": 81.37, "unit": "%"}, {"measurement": "inhibition at 10 µM", "setting": "[21]; Homo sapiens, UO-31, 10 μM, read-out: Percentage growth inhibition (GI%)", "result": 61, "unit": "%"}, {"measurement": "Growth Percent", "setting": "[21]; UO-31, 1.00E-5 Molar", "result": 39.33, "unit": "%"}, {"measurement": "inhibition at 10 µM", "setting": "[22]; Homo sapiens, TK-10, 10 μM, read-out: Percentage growth inhibition (GI%)", "result": 35, "unit": "%"}, {"measurement": "Growth Percent", "setting": "[22]; TK-10, 1.00E-5 Molar", "result": 65.92, "unit": "%"}, {"measurement": "Growth Percent", "setting": "[23]; 1.00E-5 Molar", "result": 57.41, "unit": "%"}, {"measurement": "inhibition at 10 µM", "setting": "[23]; [29]", "result": 43, "unit": "%"}, {"measurement": "Growth Percent", "setting": "[24]; 786-0, 1.00E-5 Molar", "result": 56.08, "unit": "%"}, {"measurement": "inhibition at 10 µM", "setting": "[24]; Homo sapiens, 786-0, 10 μM, read-out: Percentage growth inhibition (GI%)", "result": 44, "unit": "%"}, {"measurement": "Growth Percent", "setting": "[25]; A498, 1.00E-5 Molar", "result": 57.74, "unit": "%"}, {"measurement": "inhibition at 10 µM", "setting": "[25]; Homo sapiens, A498, 10 μM, read-out: Percentage growth inhibition (GI%)", "result": 43, "unit": "%"}, {"measurement": "Growth Percent", "setting": "[26]; DU-145, 1.00E-5 Molar", "result": 54.52, "unit": "%"}, {"measurement": "inhibition at 10 µM", "setting": "[26]; Homo sapiens, DU-145, 10 μM, read-out: Percentage growth inhibition (GI%)", "result": 46, "unit": "%"}, {"measurement": "inhibition at 10 µM", "setting": "[27]; Homo sapiens, PC-3, 10 μM, read-out: Percentage growth inhibition (GI%)", "result": 86, "unit": "%"}, {"measurement": "Growth Percent", "setting": "[27]; PC-3, 1.00E-5 Molar", "result": 14.67, "unit": "%"}, {"measurement": "inhibition at 10 µM", "setting": "[28]; Homo sapiens, 10 μM, one dose, read-out: mean inhibition (mean % growth inhibition over NCI 58 cell line panel)", "result": 49, "unit": "%"}, {"measurement": "Mean Growth Percent", "setting": "[28]; One Dose Mean Graph, 1.00E-5 Molar", "result": 51.42, "unit": "%"}]}
